Values of other authors in patent publication US6852845B1, “Method of identifying toxic agents using NSAID-induced differential gene expression in liver” (Curagen Corporation, priority 1999, dated 2005).

Legend:
liver [1] = conditions: risk class assigned to each NSAID (low, very low, overdose risk)
liver [2] = conditions: injury type classes of Table 5: hepatocellular damage, cholestasis, elevated transaminase level

Structure (SMILES) | Hepatotoxicity Risk of NSAIDs: Risk (liver [1]) | type of hepatoxicity injury induced by the NSAID (liver [2])
CC(=O)Oc1ccccc1C(=O)O [Acetylsalicylic Acid] | Overdose Risk | –
CC(C(=O)O)c1ccc2oc(-c3ccc(Cl)cc3)nc2c1 (stereo not shown) [Benoxaprofen] | Low Risk | cholestatis-inducing
Nc1c(CC(=O)O)cccc1C(=O)c1ccc(Br)cc1 [Bromfenac] | Low Risk | –
O=C(O)Cc1ccccc1Nc1c(Cl)cccc1Cl [Diclofenac] | Low Risk | –
CCc1cccc2c3c([nH]c12)C(CC)(CC(=O)O)OCC3 (stereo not shown) [Etodolac] | Very Low Risk | –
CC(C(=O)O)c1cccc(Oc2ccccc2)c1 (stereo not shown) [Fenoprofen] | Very Low Risk | –
CC(C(=O)O)c1ccc(-c2ccccc2)c(F)c1 (stereo not shown) [Flurbiprofen] | Very Low Risk | hepatocellular damage
COc1ccc2c(c1)c(CC(=O)O)c(C)n2C(=O)c1ccc(Cl)cc1 [Indomethacin] | Very Low Risk | –
CC(C(=O)O)c1cccc(C(=O)c2ccccc2)c1 (stereo not shown) [Ketoprofen] | Very Low Risk | –
Cc1ccc(Cl)c(Nc2ccccc2C(=O)O)c1Cl [Meclofenamate] | Very Low Risk | –
Cc1cccc(Nc2ccccc2C(=O)O)c1C [Mefenamic Acid] | Very Low Risk | elevated transaminase level
COc1ccc2cc(CCC(C)=O)ccc2c1 [Nabumetone] | Very Low Risk | cholestatis-inducing
O=C(O)CCc1nc(-c2ccccc2)c(-c2ccccc2)o1 [Oxaprozin] | Very Low Risk | –
CCOc1ccc(NC(C)=O)cc1 [Phenacetin] | Overdose Risk | –
CCCCC1C(=O)N(c2ccccc2)N(c2ccccc2)C1=O [Phenylbutazone] | Low Risk | –
CN1C(C(=O)Nc2ccccn2)=C(O)c2ccccc2S1(=O)=O [Piroxicam] | Very Low Risk | –
CC1=C(CC(=O)O)c2cc(F)ccc2/C1=C\c1ccc([S+](C)[O-])cc1 (stereo not shown) [Sulindac] | Low Risk | cholestatis-inducing
CC(C(=O)O)c1ccc(C(=O)c2cccs2)cc1 (stereo not shown) [Suprofen] | Very Low Risk | –
CN1C(C(=O)Nc2ccccn2)=C(O)c2sccc2S1(=O)=O [Tenoxicam] | Very Low Risk | elevated transaminase level
Cc1ccc(C(=O)c2ccc(CC(=O)O)n2C)cc1 [Tolmentin] | Very Low Risk | –
Cc1cc(CC(=O)O)n(C)c1C(=O)c1ccc(Cl)cc1 [Zomepirac] | Very Low Risk | elevated transaminase level
